Several values for one entry are separate records, joined by “and”; a condition that tells them apart may be missing. Equal entries are not always repeated. Structures can show the parent of a compound that is named as a salt. Where two headings read alike, the source gives them in different places.
Key:
MRSA clinical isolates [1] = test system: MRSA clinical isolates; design: method as in PMID 31339997, PMID 34450626, PMID 40116514; details: S. aureus (MRSA); in presence of inhibitor 1; previously reported; cited from earlier work
[2] = test system: D-alanyl ester of the MRSA cell wall; assay: Quantification of D-alanyl ester in the bacterial cell wall; assay type: cell-based, S. aureus; details: inhibitor at 1 mM, value (spread)
Description: (§1) All these compounds were also tested […] against MRSA clinical isolates. […] The minimum inhibitory concentrations (MICs) of imipenem (IPM) were next determined in the absence or presence of 1 mM of the different DltA inhibitors to evaluate their potential to re-sensitize MRSA to this β-lactam (Table 2). […] To clarify this hypothesis, quantification of D-alanyl ester of the MRSA cell wall was performed as previously described in the presence of inhibitors (Table 2). […] These new series represent a promising structure entry not reported yet for the inhibition of DltA and the re-sensitization of bacteria toward known antibiotics.
Ester-linked D-alanines were quantified as described previously, with the following modifications. Cultures were grown in 5 mL of BHI supplemented with DltA inhibitor to a final concentration of 0.05, 0.1, 0.25, 0.5, 0.75, or 1 mM for 16 h at 37 °C under shaking (120 rpm). Briefly, the quantification is based on the oxidation of a chromogen by H2O2 generated when free D-alanines are oxidized by a D-amino acid oxidase. Three independent experiments with duplicate samples were performed.

DltA = target: DltA; design: method as in PMID 15955059; details: DltA inhibitor; cited from earlier work
[3] = target: T1, recombinant DltA from E. faecalis (Enterococcus faecalis, UniProt Q830N0); assay: DltA enzyme inhibition, PPi release coupled-enzyme assay; assay type: biochemical
T1 construct: made in house; host or cells: E. coli
T1 sequence (Q830N0 1-506): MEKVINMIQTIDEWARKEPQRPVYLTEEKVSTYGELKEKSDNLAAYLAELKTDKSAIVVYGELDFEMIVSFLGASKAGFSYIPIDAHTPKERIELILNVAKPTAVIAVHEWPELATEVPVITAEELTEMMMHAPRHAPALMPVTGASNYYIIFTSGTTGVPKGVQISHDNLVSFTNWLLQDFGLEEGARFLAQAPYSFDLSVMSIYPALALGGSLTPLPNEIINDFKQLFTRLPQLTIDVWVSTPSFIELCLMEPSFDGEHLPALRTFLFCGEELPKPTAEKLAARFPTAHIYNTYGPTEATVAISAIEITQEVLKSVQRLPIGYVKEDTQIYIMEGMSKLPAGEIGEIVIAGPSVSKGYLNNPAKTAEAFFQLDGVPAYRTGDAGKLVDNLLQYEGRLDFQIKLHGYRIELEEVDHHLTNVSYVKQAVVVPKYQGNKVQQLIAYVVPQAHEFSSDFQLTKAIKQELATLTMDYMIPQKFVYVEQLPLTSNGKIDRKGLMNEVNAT
Description: (§2) All new compounds were then evaluated in vitro for enzyme inhibition against recombinant DltA from E. faecalis or S. epidermis. Half-maximal inhibitory concentrations (IC50) were then determined by measuring the amount of PPi released at different inhibitor concentrations (Table 2). […] We noticed the DltA enzyme tolerated the presence of various modifications on the 2′-position, but the activity was inversely related to the size of the introduced group. […] Despite a good predicted binding affinity (−8.7 Kcal/mol), we hypothesize that the lower activity could be explained by the fact that the squaramide nitrogen atom might not be under its anionic form, as is the case with sulfamate 1.
(§3) The DltA-catalyzed ATP-hydrolysis reaction was monitored in vitro via PPi release (DltA +D-alanine +ATP → DltA-DAla-AMP +PPi) using a coupled-enzyme assay. The purified DltA was pretreated with DltC purified from E. coli to clear D-Ala-AMP already present in the enzyme preparation after expression in E. coli. Holo-DltC is the natural protein partner of DltA, and DltC purified from E. coli BL21 (DE3) contained 51% of this active form of DltC as determined by HPLC analysis. DltA was pretreated with DltC (ratio 1:1.2), incubated for 30 min at 37 °C and 30 min at 4 °C. Three successive washes were realized on Amicon Ultra-2 Centrifugal Filter Unit—Ultracel 30 membrane 30 kDa MWCO (Merck, Darmstadt, Germany) with elution buffer EB at 4 °C. The components of the coupled enzyme assay included 1.5 μM pre-treated DltA, 20 μM of ATP, and 14 μM of D-alanine. The half-maximal inhibitory concentration (IC50) of potential DltA inhibitors was determined by the addition of different concentrations of the synthesized molecules. PPi release was determined using the PiPer—Pyrophosphate assay kit (Invitrogen, Waltham, MA, USA) according to the recommendation of the supplier. Reactions were carried out in 96-well Chimney Style, non-binding Microplates with μClear Film Bottom (Greiner Bio-one, Frickenhausen, Germany). Plates were incubated at 37 °C for 5 h and read in a FlexStation 3 Multi-Mode plate reader (Molecular Devices, Silicon Valley, CA, USA), with λ excitation of 530 nm and λ emission of 590 nm. Experiments were conducted in sextuplicate, and the IC50 was determined by linear regression of the curve.

[4] = target: T2, recombinant DltA from S. epidermidis (Staphylococcus epidermidis, UniProt Q5HQN0); assay: as above; assay type: biochemical
T2 construct: made in house; host or cells: E. coli
T2 sequence (Q5HQN0 1-485): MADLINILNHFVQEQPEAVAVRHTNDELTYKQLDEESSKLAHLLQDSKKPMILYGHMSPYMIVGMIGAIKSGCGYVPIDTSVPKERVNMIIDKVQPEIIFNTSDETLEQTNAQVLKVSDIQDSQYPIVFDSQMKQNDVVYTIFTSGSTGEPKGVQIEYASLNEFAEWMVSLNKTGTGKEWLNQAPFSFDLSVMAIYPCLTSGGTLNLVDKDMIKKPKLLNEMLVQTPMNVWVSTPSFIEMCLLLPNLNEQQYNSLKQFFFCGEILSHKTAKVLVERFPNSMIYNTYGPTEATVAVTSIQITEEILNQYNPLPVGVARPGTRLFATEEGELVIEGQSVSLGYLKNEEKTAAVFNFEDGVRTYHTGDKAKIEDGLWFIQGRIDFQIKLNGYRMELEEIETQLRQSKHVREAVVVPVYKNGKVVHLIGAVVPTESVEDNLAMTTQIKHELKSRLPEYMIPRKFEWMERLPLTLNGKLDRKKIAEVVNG
Description: as §2, §3

MRSA clinical isolates [5] = assay: MIC of imipenem against MRSA in absence or presence of DltA inhibitor; assay type: cell-based, S. aureus; details: in presence of 1 mM of the DltA inhibitor; for MIC: Staphylococcus aureus, MRSA
Description: as §1
Colonies from BHI agar plates were suspended in saline solution (0.9% NaCl) and adjusted to an OD600 of 0.5. For growth kinetics determination, 96-well microplates (Starlab, Orsay, France) containing 200 μL of fresh BHI medium were inoculated with bacterial suspensions to an OD600 of 0.02 with a wide range of DltA inhibitors (from 0 to 2 mM). Plates were incubated at 37 °C with shaking (orbital amplitude of 3 mm) in a microplate reader (InfiniteM Nano, Tecan, Seoul, Republic of Korean). OD600nm was measured every 10 min for 24 h. Determination of MIC/MBC of antibiotics and bacterial survival assays were performed as previously described using BHI medium. The DltA inhibitor was diluted in pure water and added to the growth medium to a final concentration of 0, 0.1, 0.25, 0.5, 0.75, or 1 mM.

[6] = target: T1, recombinant DltA from E. faecalis; design: method as in doi:10.1002/ejoc.202300258; details: previous reported work; cited from earlier work
[7] = S. aureus (MRSA), read-out: MIC of IPM
[8] = read-out: MIC of IPM, S. aureus (MRSA)

C[C@@H](N)C(=O)NS(=O)(=O)OC[C@H]1O[C@@H](n2cnc3c(N)ncnc32)[C@H](O)[C@@H]1O [Compound 1, reference compound]
MIC of IPM (MRSA clinical isolates [1]): 0.25 µg/mL | Reduction in D-Ala Ester Residues [2]: 86.7% and 86.7 (10.5) % | Ki (DltA): 200 nM | IC50 [3]: 2300 nM | IC50 [4]: 2400 nM

CC(N)C(=O)NS(=O)(=O)NCC1OC(n2cnc3c(N)ncnc32)C(O)C1O [Compound 30, (R)-2-amino-N-(N-(((2R,3S,4R,5R)-5-(6-amino-9H-purin-9-yl)-3,4-dihydroxytetrahydrofuran-2-yl)methyl)sulfamoyl)propenamide salt]
Reduction in D-Ala Ester Residues [2]: 80.9% and 80.9 (18.4) % | MIC (MRSA clinical isolates [5]; [7]): 1 µg/mL | IC50 [3]: 1800 nM | IC50 [4]: 2000 nM

CC(N)C(=O)NS(=O)(=O)NCC1OC(n2cnc3c(N)ncnc32)C(F)C1O [Compound 31, (R)-2-amino-N-(N-(((2R,3R,4R,5R)-5-(6-amino-9H-purin-9-yl)-4-fluoro-3-hydroxytetrahydrofuran-2-yl)methyl)sulfamoyl)propenamide salt]
Reduction in D-Ala Ester Residues [2]: 0% | MIC (MRSA clinical isolates [5]; [7]): 32 µg/mL | IC50 [3]: 3200 nM

C[C@@H](N)C(=O)c1cn(C/C(CO)=C(\F)Cn2cnc3c(N)ncnc32)nn1 [Compound 39]
Reduction in D-Ala Ester Residues [2]: 0% | IC50 [6]: 7400 nM | MIC (MRSA clinical isolates [5]; [8]): 16 µg/mL

C[C@@H](N)C(=O)c1cn(C[C@H]2O[C@@H](n3cnc4c(N)ncnc43)[C@H](O)[C@@H]2O)nn1 [Compound 40]
IC50 [6]: 4500 nM | MIC (MRSA clinical isolates [5]; [8]): 8 µg/mL

C[C@@H](N)C(=O)c1cn(C[C@H]2O[C@@H](n3cnc4c(N)ncnc43)[C@H](F)[C@@H]2O)nn1 [Compound 50, (R)-2-amino-1-(1-(((2R,3R,4R,5R)-5-(6-amino-9H-purin-9-yl)-4-fluoro-3-hydroxytetrahydrofuran-2-yl)methyl)-1H-1,2,3-triazol-4-yl)propan-1-one salt]
Reduction in D-Ala Ester Residues [2]: 8.6 (1.1) % | MIC of IPM (MRSA clinical isolates [5]; S. aureus (MRSA)): 32 µg/mL | MIC (MRSA clinical isolates [5]; [8]): 16 to 64 µg/mL | IC50 [3]: 14700 nM

From article PMC12196251, “Synthesis of New DltA Inhibitors and Their Application as Adjuvant Antibiotics to Re-Sensitize Methicillin-Resistant Staphylococcus aureus” (Molecules, 2025)
